Results published in US6369069B1 (Aventis Pharma Deutschland GmbH, priority 1998, dated 2002).

tested on: Na^+-dependent Cl^−/HCO3^− exchanger (NCBE); experiment: Inhibition of the Na+-dependent Cl−/HCO3− exchanger (NCBE) in human endothelial cells (pHi recovery, BCECF fluorescence, FLIPR); format: cell-based; settings: 10 μM
Procedure: Inhibition of the Na^+-dependent Cl^−/HCO3^− exchanger (NCBE) in human endothelial cells
Human endothelial cells (ECV-304) were detached form culture flasks with the aid of trypsin/EDTA buffer (0.05/0.02% in phosphate buffer) and, after centrifugation (100 g, 5 min), taken up in a buffered saline solution (mmol/l: 115 NaCl, 20 NH4Cl, 5 KCl, 1 CaCl2, 1 MgSO4, 20 N-(2-hydroxyethyl)-piperazine-N[…]-2-ethanesulfonic acid (HEPES), 5 glucose and 1 g/l of bovine serum albumin; pH 7.4). This cell suspension was incubated at 37 °C. for 20 min with 5 μM BCECF acetoxymethyl ester. The cells were then washed and resuspended in a sodium- and bicarbonate-free buffer solution (mmol/l: 5 HEPES, 133.8 choline chloride, 4.7 KCl, 1.25 MgCl2, 0.97 K2HPO4, 0.23 KH2PO4, 5 glucose; pH 7.4).
For the subsequent fluorescence measurement in the FLIPR (Fluorescent Imaging Plate Reader), 100 μl of this cell suspension in each case containing 20,000 cells were added by pipette per well of a 96-well microtiter plate and this microtiter plate was centrifuged (100 g, 5 min). In the FLIPR, 100 μl of buffer solution in each case were then removed from a further prepared microtiter plate and added by pipette to each of the 96 wells of the measuring plate. In this case, for a 100% control, i.e. a recovery of the intracellular pH (pHi) by means of the NCBE, a bicarbonate- and sodium-containing buffer solution (mmol/l: 5 HEPES, 93.8 NaCl, 40 NaHCO3, 4.7 KCl, 1.25 CaCl2, 1.25 MgCl2, 0.97 Na2HPO4, 0.23 NaH2PO4, 5 glucose; pH 7.4) which contained 50 μM HOE 642 was used. For a 0% control, i.e. no pHi recovery at all, a bicarbonate-free, sodium-containing buffer solution (mmol/l: 5 HEPES, 133.8 NaCl, 4.7 KCl, 1.25 CaCl2, 1.25 MgCl2, 0.97 Na2HPO4, 0.23 NaH2PO4, 5 glucose; pH 7.4) to which 50 μM HOE 642 were also added was employed. The compounds according to the invention were added in various concentrations of the sodium- and bicarbonate-containing solution. After addition of the buffer solutions to the dye-loaded acidified cells situated in the measuring plate, the increase in the fluorescence intensity which corresponded to an increase in the pHi was determined in each well of the microtiter plate.
The kinetics were in this case recorded at 35° C. over a period of 2 minutes. The increase in the fluorescence intensities for different concentrations of the compounds according to the invention was related to the two controls and from this the inhibitory action of the substances was determined.

Compound | Residual activity % of the NCBE at 10 μM
COC(=O)C(Cc1ccccc1)N(Cc1ccc(-c2ccccc2S(=O)(=O)NC#N)cc1)C(=O)C(=O)c1cccs1 (stereo not shown) [Example 201] | 69.6%
N#CNS(=O)(=O)c1ccccc1-c1ccc(CN(CCc2cccs2)C(=O)COc2ccccc2)cc1 [Example 165] | 56.8%
N#CNS(=O)(=O)c1ccccc1-c1ccc(CN(Cc2cccc(Cl)c2)C(=O)Cc2cccs2)cc1 [Example 273] | 32.4%
COc1ccc(CC(=O)N(CCOc2ccccc2)Cc2ccc(-c3ccccc3S(=O)(=O)NC#N)cc2)cc1 [Example 173] | 76.4%
C=CCOC(=O)N(CCO)Cc1ccc(-c2ccccc2S(=O)(=O)NC#N)cc1 [Example 44] | 82.6%
COC(=O)C(c1ccccc1)N(Cc1ccc(-c2ccccc2S(=O)(=O)NC#N)cc1)C(=O)Cc1ccccc1Br (stereo not shown) [Example 274] | 73.6%
Cc1ccccc1CN(Cc1ccc(-c2ccccc2S(=O)(=O)NC#N)cc1)C(=O)CC1CCCCC1 [Example 352] | 35.2%
COc1cccc(CN(Cc2ccc(-c3ccccc3S(=O)(=O)NC#N)cc2)C(=O)NCc2ccccc2)c1 [Example 303] | 65.8%
N#CNS(=O)(=O)c1ccccc1-c1ccc(CN(Cc2ccccc2Cl)C(=O)C(C(=O)Cc2ccccc2)c2ccccc2)cc1 (stereo not shown) [Example 131] | 97.6%
N#CNS(=O)(=O)c1ccccc1-c1ccc(CN(Cc2ccccc2)C(=O)C(NC(=O)OCc2ccccc2)c2ccccc2)cc1 (stereo not shown) [Example 242] | 72.4%
N#CNS(=O)(=O)c1ccccc1-c1ccc(CN(C(=O)CCOc2ccccc2)C2CCCc3ccccc32)cc1 (stereo not shown) [Example 345] | 39.8%
N#CNS(=O)(=O)c1ccccc1-c1ccc(CN(Cc2ccc(Cl)cc2)C(=O)CCC2CCCCC2)cc1 [Example 10] | 84.9%
N#CNS(=O)(=O)c1ccccc1-c1ccc(CN(Cc2ccccc2Cl)C(=O)c2cc3ccccc3s2)cc1 [Example 71] | 35.2%
N#CNS(=O)(=O)c1ccccc1-c1ccc(CN(Cc2ccc3ccccc3c2)C(=O)CCOc2ccccc2)cc1 [Example 340] | 37.2%
N#CNS(=O)(=O)c1ccccc1-c1ccc(CN(Cc2cccc(Cl)c2)C(=O)CCS(=O)(=O)c2ccccc2)cc1 [Example 281] | 68.6%
COc1cc(CN(Cc2ccc(-c3ccccc3S(=O)(=O)NC#N)cc2)C(=O)Cc2cccs2)cc(OC)c1OC [Example 145] | 39.6%
N#CNS(=O)(=O)c1ccccc1-c1ccc(CN(Cc2ccc(C(F)(F)F)cc2)C(=O)Cc2ccccc2)cc1 [Example 129] | 47.4%
N#CNS(=O)(=O)c1ccccc1-c1ccc(CN(CC2CCCCC2)C(=O)CCC2CCCCC2)cc1 [Example 267] | 57.9%
CN(Cc1ccc(-c2ccccc2S(=O)(=O)NC#N)cc1)C(=O)Cc1csc2ccccc12 [Example 214] | 44.3%
COCCN(Cc1ccc(-c2ccccc2S(=O)(=O)NC#N)cc1)C(=O)Cc1csc2ccccc12 [Example 211] | 50.6%
N#CNS(=O)(=O)c1ccccc1-c1ccc(CN(CCCc2ccccc2)C(=O)Cc2cccs2)cc1 [Example 236] | 35.1%
COc1cccc(CC(=O)N(Cc2ccccc2)Cc2ccc(-c3ccccc3S(=O)(=O)NC#N)cc2)c1 [Example 19] | 25.9%
N#CNS(=O)(=O)c1ccccc1-c1ccc(CN(Cc2ccc(C(F)(F)F)cc2)C(=O)c2cc3ccccc3s2)cc1 [Example 79] | 61.7%

Compound | Residual activity % of the NCBE at 10 μM
N#CNS(=O)(=O)c1ccccc1-c1ccc(CN(Cc2cccc(Cl)c2Cl)C(=O)CCOc2ccccc2)cc1 [Example 339] | 46.8%
N#CNS(=O)(=O)c1ccccc1-c1ccc(CN(C(=O)CCCCc2cccs2)C2CC2)cc1 [Example 221] | 72.3%
N#CNS(=O)(=O)c1ccccc1-c1ccc(CN(CCCc2ccccc2)C(=O)C(=O)c2cccs2)cc1 [Example 194] | 61.1%
COCCN(Cc1ccc(-c2ccccc2S(=O)(=O)NC#N)cc1)C(=O)CCCCc1cccs1 [Example 219] | 82.5%
CC(C)(C)c1ccc(C(=O)N(Cc2ccccc2)Cc2ccc(-c3ccccc3S(=O)(=O)NC#N)cc2)cc1 [Example 31] | 52.2%
COc1ccc(CN(Cc2ccc(-c3ccccc3S(=O)(=O)NC#N)cc2)C(=O)c2ccccc2Cl)cc1 [Example 57] | 82.1%
N#CNS(=O)(=O)c1ccccc1-c1ccc(CN(Cc2cccs2)C(=O)C(=O)c2ccco2)cc1 [Example 254] | 64.5%
COCCC(=O)N(Cc1ccc(-c2ccccc2S(=O)(=O)NC#N)cc1)Cc1ccccc1C [Example 322] | 66.3%
COc1ccc(CC(=O)N(Cc2ccc(-c3ccccc3S(=O)(=O)NC#N)cc2)Cc2cc(OC)c(OC)c(OC)c2)cc1 [Example 176] | 83.9%
N#CNS(=O)(=O)c1ccccc1-c1ccc(CN(CCCc2ccccc2)C(=O)CCCc2cccs2)cc1 [Example 186] | 9.7%
N#CNS(=O)(=O)c1ccccc1-c1ccc(CN(C(=O)CC2CCCC2)C2CCCc3ccccc32)cc1 (stereo not shown) [Example 365] | 45.1%
N#CNS(=O)(=O)c1ccccc1-c1ccc(CN(Cc2ccccc2F)C(=O)CCOc2ccccc2)cc1 [Example 346] | 36.0%
CC(=O)N(CCOc1ccccc1)Cc1ccc(-c2ccccc2S(=O)(=O)NC#N)cc1 [Example 180] | 70.9%
N#CNS(=O)(=O)c1ccccc1-c1ccc(CN(C(=O)Cc2cccs2)C2CCCCC2)cc1 [Example 30] | 95.2%
N#CNS(=O)(=O)c1ccccc1-c1ccc(CN(C(=O)CC2CCCCC2)C2CCCc3ccccc32)cc1 (stereo not shown) [Example 355] | 46.8%
Cc1ccc(C(=O)N(CCO)Cc2ccc(-c3ccccc3S(=O)(=O)NC#N)cc2)cc1 [Example 68] | 94.4%
Cc1cccc(CN(Cc2ccc(-c3ccccc3S(=O)(=O)NC#N)cc2)C(=O)CCOc2ccccc2)c1 [Example 341] | 44.6%
COc1cc(C(=O)N(Cc2ccc(Cl)cc2)Cc2ccc(-c3ccccc3S(=O)(=O)NC#N)cc2)cc(OC)c1OC [Example 52] | 59.9%
N#CNS(=O)(=O)c1ccccc1-c1ccc(CN(Cc2ccccc2Cl)C(=O)c2ccccc2Cl)cc1 [Example 101] | 62.6%
N#CNS(=O)(=O)c1ccccc1-c1ccc(CN(Cc2ccccc2Cl)C(=O)c2cccs2)cc1 [Example 81] | 36.0%
CN(Cc1ccc(-c2ccccc2S(=O)(=O)NC#N)cc1)C(=O)Cc1ccsc1 [Example 230] | 68.6%
COc1cc(CN(Cc2ccc(-c3ccccc3S(=O)(=O)NC#N)cc2)C(=O)Cc2ccc(Cl)cc2)cc(OC)c1OC [Example 155] | 34.2%
N#CNS(=O)(=O)c1ccccc1-c1ccc(CN(CC2CC2)C(=O)COc2ccccc2)cc1 [Example 168] | 96.4%

same assay, conditions: compound at 10 μM; R(3) to R(7) hydrogen series

Compound | Residual activity % of the NCBE at 10 μM
N#CNS(=O)(=O)c1ccccc1-c1ccc(CN(CC2CC(C(=O)N3CCCC3)=NO2)C(=O)Cc2cccs2)cc1 (stereo not shown) [Example 396] | 53.2%
CC(C(=O)N(Cc1ccc(-c2ccccc2S(=O)(=O)NC#N)cc1)CC1(c2ccccc2)CCCC1)c1cccs1 (stereo not shown) [Example 393] | 16.7%

same assay, conditions: compound at 10 μM; sub-table with R7 substituent

Compound | Residual activity % of the NCBE at 10 μM
Cc1ccc(-c2ccc(CN(Cc3ccccc3F)C(=O)Cc3ccc(Cl)cc3)cc2)c(S(=O)(=O)NC#N)c1 [Example 535] | 84.0%
Cc1ccc(-c2ccc(CN(Cc3ccccc3Cl)C(=O)Cc3cccs3)cc2)c(S(=O)(=O)NC#N)c1 [Example 516] | 98.7%
Cc1ccc(-c2ccc(CN(CCc3ccccc3)C(=O)CC3CCCCC3)cc2)c(S(=O)(=O)NC#N)c1 [Example 550] | 63.3%
Cc1ccc(-c2ccc(CN(Cc3cccs3)C(=O)Cc3cccs3)cc2)c(S(=O)(=O)NC#N)c1 [Example 517] | 86.2%
